Data as given in patent US9943519B2, “Pharmaceutical compounds” (F.HOFFMANN-LA ROCHE AG, priority 2006, dated 2018).

How the values were obtained:
[1] = molecular target: human PI3K isoform beta (p110 beta) (Homo sapiens, UniProt P42338); test: p110 isoform selectivity scintillation proximity assay (beta); assay type: biochemical; settings: ratio of IC50 values, SPA, purified human PI3K isoforms
Protocol: (§1) Binding of compounds of the invention from above Tables 1a and 1b to purified preparations of p110 isoforms alpha, beta, delta, and gamma was measured by a Scintillation Proximity Assay (SPA) to determine binding activity (IC50 μMol) and selectivity of binding of beta, delta, and gamma isoforms relative to alpha (Example 8). These values are expressed in Table 2.
(§2) The ability of representative compounds from Tables 1a and 1b to inhibit the lipid kinase activity of purified preparations of human PI3K isoforms alpha, beta, delta, and gamma was determined by a radiometric scintillation proximity assay (SPA, GE Healthcare, Amersham Biosciences). Concentration dependent inhibition at 50% (IC50 μMol) was determined for all four isoforms […] and fold potency over beta, delta, and gamma relative to alpha was calculated for a selection of compounds in Table 2. Each compound has a p110 alpha IC50<1 μMol.

[2] = molecular target: human PI3K isoform delta (p110 delta) (Homo sapiens, UniProt O00329); test: p110 isoform selectivity scintillation proximity assay (delta); assay type: biochemical; settings: ratio of IC50 values, SPA, purified human PI3K isoforms
Protocol: as §1, §2

[3] = molecular target: human PI3K isoform gamma (p110 gamma) (Homo sapiens, UniProt P48736); test: p110 isoform selectivity scintillation proximity assay (gamma); assay type: biochemical; settings: ratio of IC50 values, SPA, purified human PI3K isoforms
Protocol: as §1, §2

Caco-2 cells = test: Caco-2 permeability; assay type: in vitro ADME; settings: bidirectional Caco-2 assay
Protocol: Caco-2 cells were seeded onto Millipore Multiscreen plates at 1×10^5 cells/cm^2, and were cultured for 20 days. Assessment of compound permeability was subsequently conducted. The compounds were applied to the apical surface (A) of cell monolayers and compound permeation into the basolateral (B) compartment was measured. This was performed in the reverse direction (B−A) to investigate active transport. A permeability coefficient value, Papp, for each compound, a measure of the rate of permeation of the compound across the membrane, was calculated. Compounds were grouped into low (Papp</=[…]) or high (Papp>/=[…]) absorption potential based on comparison with control compounds with established human absorption.
For assessment of a compound's ability to undergo active efflux, the ratio of basolateral (B) to apical (A) transport compared with A to B was determined. Values of B−A/A−B>/=1.0 indicated the occurrence of active cellular efflux. All of the compounds tested through the Caco-2 permeability screen had Papp values >/=[…].

human PI3K isoform beta (p110 beta), sequence (P42338 whole entry, canonical isoform): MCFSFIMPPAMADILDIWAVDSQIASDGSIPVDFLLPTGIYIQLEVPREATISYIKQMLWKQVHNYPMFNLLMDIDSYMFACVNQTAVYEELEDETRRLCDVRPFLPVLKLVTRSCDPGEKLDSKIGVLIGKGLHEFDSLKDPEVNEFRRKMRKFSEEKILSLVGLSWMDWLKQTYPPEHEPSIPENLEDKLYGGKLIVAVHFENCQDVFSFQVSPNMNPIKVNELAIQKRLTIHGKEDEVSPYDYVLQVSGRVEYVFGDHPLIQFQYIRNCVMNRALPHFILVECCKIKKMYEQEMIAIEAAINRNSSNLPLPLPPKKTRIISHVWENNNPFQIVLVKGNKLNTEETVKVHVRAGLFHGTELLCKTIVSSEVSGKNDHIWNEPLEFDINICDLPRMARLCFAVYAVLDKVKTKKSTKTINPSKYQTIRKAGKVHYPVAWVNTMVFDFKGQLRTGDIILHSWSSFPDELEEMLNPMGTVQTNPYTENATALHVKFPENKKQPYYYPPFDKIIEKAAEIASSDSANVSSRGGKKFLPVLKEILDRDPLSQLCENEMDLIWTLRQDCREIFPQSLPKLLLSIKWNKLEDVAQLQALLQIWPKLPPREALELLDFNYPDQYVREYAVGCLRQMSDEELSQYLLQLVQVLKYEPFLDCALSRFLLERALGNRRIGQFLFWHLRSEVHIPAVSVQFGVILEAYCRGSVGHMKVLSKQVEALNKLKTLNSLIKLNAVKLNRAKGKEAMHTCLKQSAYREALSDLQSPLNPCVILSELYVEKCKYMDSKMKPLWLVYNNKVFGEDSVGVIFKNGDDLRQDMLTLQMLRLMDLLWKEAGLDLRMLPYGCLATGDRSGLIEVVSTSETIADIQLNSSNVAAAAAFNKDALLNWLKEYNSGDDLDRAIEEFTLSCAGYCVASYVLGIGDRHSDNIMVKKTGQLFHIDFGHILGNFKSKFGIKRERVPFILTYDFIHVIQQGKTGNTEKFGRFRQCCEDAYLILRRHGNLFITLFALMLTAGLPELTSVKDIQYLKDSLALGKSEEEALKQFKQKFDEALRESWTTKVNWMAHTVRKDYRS
human PI3K isoform beta (p110 beta), sequence (P27986 whole entry partner, canonical isoform): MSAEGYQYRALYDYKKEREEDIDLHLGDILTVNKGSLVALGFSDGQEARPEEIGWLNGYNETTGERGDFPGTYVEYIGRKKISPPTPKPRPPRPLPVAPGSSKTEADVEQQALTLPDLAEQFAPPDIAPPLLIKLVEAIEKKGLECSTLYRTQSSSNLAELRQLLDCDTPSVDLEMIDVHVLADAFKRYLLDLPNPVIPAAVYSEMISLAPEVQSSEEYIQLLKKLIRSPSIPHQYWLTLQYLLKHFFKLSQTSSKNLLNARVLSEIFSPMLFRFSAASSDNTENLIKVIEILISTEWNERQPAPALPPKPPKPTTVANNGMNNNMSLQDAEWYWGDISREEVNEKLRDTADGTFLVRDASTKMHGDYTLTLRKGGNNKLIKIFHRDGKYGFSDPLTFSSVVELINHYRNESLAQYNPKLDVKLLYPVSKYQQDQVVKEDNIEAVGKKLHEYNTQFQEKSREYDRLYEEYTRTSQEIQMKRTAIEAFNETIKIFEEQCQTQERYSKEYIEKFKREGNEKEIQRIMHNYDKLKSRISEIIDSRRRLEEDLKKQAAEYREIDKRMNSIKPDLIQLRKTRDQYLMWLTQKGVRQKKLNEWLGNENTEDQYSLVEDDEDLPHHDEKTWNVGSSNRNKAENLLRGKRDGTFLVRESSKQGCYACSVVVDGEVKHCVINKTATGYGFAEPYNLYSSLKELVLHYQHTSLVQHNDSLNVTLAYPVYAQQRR
human PI3K isoform gamma (p110 gamma), sequence (P48736 whole entry, canonical isoform): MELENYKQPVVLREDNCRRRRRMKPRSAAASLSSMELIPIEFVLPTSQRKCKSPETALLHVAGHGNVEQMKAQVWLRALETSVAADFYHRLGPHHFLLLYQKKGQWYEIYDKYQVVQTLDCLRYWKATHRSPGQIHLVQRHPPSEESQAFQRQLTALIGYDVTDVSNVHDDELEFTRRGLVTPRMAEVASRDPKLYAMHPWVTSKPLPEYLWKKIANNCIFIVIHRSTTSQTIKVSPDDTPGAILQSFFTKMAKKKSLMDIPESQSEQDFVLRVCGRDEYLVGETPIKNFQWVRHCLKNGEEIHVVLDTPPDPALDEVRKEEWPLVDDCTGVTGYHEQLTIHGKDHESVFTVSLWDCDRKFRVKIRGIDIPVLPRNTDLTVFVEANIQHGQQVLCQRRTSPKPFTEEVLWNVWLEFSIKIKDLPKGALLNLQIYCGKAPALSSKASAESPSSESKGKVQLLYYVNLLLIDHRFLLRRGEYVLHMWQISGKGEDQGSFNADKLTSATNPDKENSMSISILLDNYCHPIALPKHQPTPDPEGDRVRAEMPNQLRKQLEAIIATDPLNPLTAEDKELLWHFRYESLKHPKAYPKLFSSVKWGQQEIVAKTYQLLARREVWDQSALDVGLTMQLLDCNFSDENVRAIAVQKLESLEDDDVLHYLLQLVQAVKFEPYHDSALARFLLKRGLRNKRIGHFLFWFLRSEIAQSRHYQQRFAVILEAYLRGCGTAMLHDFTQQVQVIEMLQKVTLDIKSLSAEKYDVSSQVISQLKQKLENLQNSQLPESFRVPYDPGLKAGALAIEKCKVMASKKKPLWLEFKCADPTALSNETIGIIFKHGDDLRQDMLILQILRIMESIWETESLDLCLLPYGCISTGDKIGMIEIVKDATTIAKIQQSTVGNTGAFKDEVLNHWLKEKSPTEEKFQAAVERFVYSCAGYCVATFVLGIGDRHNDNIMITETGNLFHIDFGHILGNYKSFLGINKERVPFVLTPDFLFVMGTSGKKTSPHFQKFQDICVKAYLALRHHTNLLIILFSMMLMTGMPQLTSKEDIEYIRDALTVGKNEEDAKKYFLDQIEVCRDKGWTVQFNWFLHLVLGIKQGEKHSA
human PI3K isoform delta (p110 delta), sequence (O00329 whole entry, canonical isoform): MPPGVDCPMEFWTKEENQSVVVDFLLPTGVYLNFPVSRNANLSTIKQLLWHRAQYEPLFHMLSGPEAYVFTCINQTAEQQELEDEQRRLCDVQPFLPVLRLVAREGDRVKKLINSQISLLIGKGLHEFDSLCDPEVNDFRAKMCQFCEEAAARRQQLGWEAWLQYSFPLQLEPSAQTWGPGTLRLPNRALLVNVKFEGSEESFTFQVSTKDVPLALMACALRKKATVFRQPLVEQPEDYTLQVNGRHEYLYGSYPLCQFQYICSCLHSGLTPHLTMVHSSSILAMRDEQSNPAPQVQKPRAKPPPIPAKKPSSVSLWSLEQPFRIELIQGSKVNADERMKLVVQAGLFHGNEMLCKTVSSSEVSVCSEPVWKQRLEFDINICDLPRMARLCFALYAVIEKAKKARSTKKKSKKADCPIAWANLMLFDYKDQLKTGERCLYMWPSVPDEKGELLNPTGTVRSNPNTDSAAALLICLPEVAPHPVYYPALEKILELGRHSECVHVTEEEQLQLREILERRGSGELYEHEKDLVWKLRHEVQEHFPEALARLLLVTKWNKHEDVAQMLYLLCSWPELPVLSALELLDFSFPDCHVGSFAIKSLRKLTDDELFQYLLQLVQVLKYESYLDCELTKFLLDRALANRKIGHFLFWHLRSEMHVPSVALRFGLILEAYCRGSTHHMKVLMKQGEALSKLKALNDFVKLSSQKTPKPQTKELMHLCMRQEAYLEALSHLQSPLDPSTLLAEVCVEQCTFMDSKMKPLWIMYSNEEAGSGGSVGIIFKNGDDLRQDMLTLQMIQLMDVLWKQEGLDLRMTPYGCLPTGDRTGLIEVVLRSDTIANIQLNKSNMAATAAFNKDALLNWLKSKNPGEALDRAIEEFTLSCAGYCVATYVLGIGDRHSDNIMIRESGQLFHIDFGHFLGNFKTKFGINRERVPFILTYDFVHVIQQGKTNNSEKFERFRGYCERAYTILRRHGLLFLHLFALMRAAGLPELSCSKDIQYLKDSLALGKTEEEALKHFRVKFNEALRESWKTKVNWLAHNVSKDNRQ
human PI3K isoform delta (p110 delta), sequence (P27986 whole entry partner, canonical isoform): as the sequence (P27986 whole entry partner, canonical isoform) above

Row | Structure (SMILES) | alpha/beta (fold potency over beta relative to alpha) [1] [fold] | alpha/delta (fold potency over delta relative to alpha) [2] [fold] | alpha/gamma (fold potency over gamma relative to alpha) [3] [fold] | B−A/A−B asymmetry index (Caco-2 cells)
1 | CS(=O)(=O)N1CCN(Cc2cc3c(N4CCOCC4)nc(-c4cnc5[nH]cnc5c4)nc3s2)CC1 [Compound 147] | >10 | >10 | >10 | 
2 | c1cc(-c2nc(N3CCOCC3)c3sc(CN4CCC(Cn5cccn5)CC4)cc3n2)c2cn[nH]c2c1 [Compound 62, 6-((4-((1H-pyrazol-1-yl)methyl)piperidin-1-yl)methyl)-2-(1H-indazol-4-yl)-4-morpholinothieno[3,2-d]pyrimidine] | >10 | <10 | >10 | 
3 | COCCN(Cc1cc2nc(-c3cccc4[nH]ncc34)nc(N3CCOCC3)c2s1)C1CCN(S(C)(=O)=O)CC1 [Compound 34, N-((2-(1H-indazol-4-yl)-4-morpholinothieno[3,2-d]pyrimidin-6-yl)methyl)-N-(2-methoxyethyl)-1-methylsulfonylpiperidin-4-amine] | >10 | <10 | >10 | 
4 | OC1CCCN(Cc2cc3nc(-c4cccc5[nH]ncc45)nc(N4CCOCC4)c3s2)C1 (stereo not shown) [Compound 65, 1-((2-(1H-indazol-4-yl)-4-morpholinothieno[3,2-d]pyrimidin-6-yl)methyl)piperidin-3-ol] | <10 | <10 | >10 | 
5 | CN1CCN(Cc2cc3nc(-c4cccc(O)c4)nc(N4CCOCC4)c3s2)CC1 [PI540] |  |  |  | less than 1.0

Results, then the compound that gave them:

Row | alpha/beta (fold potency over beta relative to alpha) [1] [fold] | alpha/delta (fold potency over delta relative to alpha) [2] [fold] | alpha/gamma (fold potency over gamma relative to alpha) [3] [fold] | B−A/A−B asymmetry index (Caco-2 cells) | Structure (SMILES)
6 | >10 | <10 | >10 |  | CS(=O)(=O)N1CCN(Cc2cc3nc(-c4cncc5ccccc45)nc(N4CCOCC4)c3s2)CC1 [Compound 90, 4-[6-(4-Methanesulfonyl-piperazin-1-ylmethyl)-4-morpholin-4-yl-thieno[3,2-d]pyrimidin-2-yl]-isoquinoline]
7 | >10 | <10 | >10 |  | CS(=O)(=O)N1CCN(Cc2cc3nc(-c4cnc5[nH]ccc5c4)nc(N4CCOCC4)c3s2)CC1 [Compound 133, 6-((4-methylsulfonylpiperazin-1-yl)methyl)-4-morpholino-2-(1H-pyrrolo[2,3-b]pyridin-5-yl)thieno[3,2-d]pyrimidine]
8 | >10 | <10 | >10 |  | O=S(=O)(N1CCOCC1)N1CCN(Cc2cc3nc(-c4cccc5[nH]ncc45)nc(N4CCOCC4)c3s2)CC1 [Compound 28, 2-(1H-indazol-4-yl)-6-((4-N-morpholinosulfonylpiperazin-1-yl)methyl)-4-morpholinothieno[3,2-d]pyrimidine]
9 | >10 | <10 | >10 |  | CS(=O)(=O)N1CCN(Cc2cc3c(N4CCOCC4)nc(-c4cccc5[nH]ncc45)nc3s2)CC1 [Compound 57, 2-(1H-indazol-4-yl)-6-((4-methylsulfonylpiperazin-1-yl)methyl)-4-morpholinothieno[2,3-d]pyrimidine]
